# Test results published in BindingDB's records for doi:10.1021/jm970615f (Parke-Davis Pharmaceutical Research, 1997).
# pIC50: −log10 of the molar value.
# Target: T1, Dimer of Gag-Pol polyprotein [489-587] (Human immunodeficiency virus 1, UniProt P12497)
# T1 construct: 489-587
# Assay: Protease Inhibition Assay
# Conditions: not given
# Experimental: For determination of IC50 values, HIV-1 protease was added to assay buffer containing inhibitor and the substrate (H-His-Lys-Ala-Arg-Val-Leu- (p-NO2) Phe-Glu-Ala-norleucine-Ser-NH2). The Leu- (p-NO2) Phe bond of the substrate was cleaved by the enzyme, and the substrate and products were separated by reversed-phase HPLC. Absorbance was measured at 220 nm, peak areas were determined, and percentage conversion to product was calculated.
row,Structure (SMILES),pIC50
1,"O=C1CC2(CCCc3ccccc32)OC(=O)C1SCCc1ccccc1 (configuration not stated) [3,4-Dihydro-4-hydroxy-5-[(2-phenylethyl)thio]-spiro[naphthalene-1(2H),2-[2H]pyran]-6 (3 H)-one]",5.89
2,"O=C1CC2(CCCc3ccccc32)OC(=O)C1SCc1ccccc1 (configuration not stated) [3,4-Dihydro-4-hydroxy-5-[(phenylmethyl)thio]spiro[naphthalene-1(2H),2-[2H]pyran]-6 (3 H)-one]",5.64
3,"CCCCCC1(CCCCC)CC(=O)C(SCc2ccccc2)C(=O)O1 (configuration not stated) [3-(Benzylsulfanyl)-4-hydroxy-6,6-dipentyl-5,6-dihydro-pyran-2-one]",6.49
4,"O=C1CC(CCCCO)(c2ccccc2)OC(=O)C1SCc1ccccc1 (configuration not stated) [3-(benzylsulfanyl)-4-hydroxy-6-(4-hydroxybutyl)-6-phenyl-5,6-dihydro-2H-pyran-2-one]",5.90
5,"O=C1CC(c2ccccc2)(c2ccccc2)OC(=O)C1Sc1ccccc1C1CCCCC1 (configuration not stated) [3-[(2-Cyclohexylphenyl)sulfanyl]-5,6-dihydro-4-hydroxy-6,6-diphenyl-2H-pyran-2-one]",6.90
6,"O=C1CC(CCc2ccccc2)(c2ccccc2)OC(=O)C1Sc1ccccc1C1CCCCC1 (configuration not stated) [3-[(2-cyclohexylphenyl)sulfanyl]-4-hydroxy-6-phenyl-6-(2-phenylethyl)-5,6-dihydro-2H-pyran-2-one]",7.49
7,"O=C1CC(c2ccccc2)(c2ccccc2)OC(=O)C1Sc1ccccc1C1CCCC1 (configuration not stated) [3-[(2-cyclopentylphenyl)sulfanyl]-4-hydroxy-6,6-diphenyl-5,6-dihydro-2H-pyran-2-one]",7.85
8,"CCC(C)c1ccccc1SC1C(=O)CC(c2ccccc2)(c2ccccc2)OC1=O (configuration not stated) [3-[(2-sec-Butylphenyl)sulfanyl]-5,6-dihydro-4-hydroxy-6,6-diphenyl-2H-pyran-2-one]",7.77
9,"CC(C)c1ccc(C(C)(C)C)c(SC2C(=O)CC(CCc3ccccc3)(c3ccccc3)OC2=O)c1 (configuration not stated) [3-[(2-tert-Butyl-5-isopropylphenyl)sulfanyl]-5,6-dihydro-4-hydroxy-6-phenyl-6-(2-phenylethyl)-2H-pyran-2-one]",7.33
10,"CC(C)(C)c1ccccc1SC1C(=O)CC(c2ccccc2)(c2ccccc2)OC1=O (configuration not stated) [3-[(2-tert-Butylphenyl)sulfanyl]-5,6-dihydro-4-hydroxy-6,6-diphenyl-2H-pyran-2-one]",7.31
11,"Cc1ccc(C(C)(C)C)c(SC2C(=O)CC(c3ccccc3)(c3ccccc3)OC2=O)c1 (configuration not stated) [3-[(2-tert-butyl-5-methylphenyl)sulfanyl]-4-hydroxy-6,6-diphenyl-5,6-dihydro-2H-pyran-2-one]",7.92
12,"CC(C)(C)c1ccccc1SC1C(=O)CC(CCc2ccccc2)(c2ccccc2)OC1=O (configuration not stated) [3-[(2-tert-butylphenyl)sulfanyl]-4-hydroxy-6-phenyl-6-(2-phenylethyl)-5,6-dihydro-2H-pyran-2-one]",8.52
13,"CC(C)c1ccc(C(C)C)c(SC2C(=O)CC(c3ccccc3)(c3ccccc3)OC2=O)c1 (configuration not stated) [3-{[2,5-bis(propan-2-yl)phenyl]sulfanyl}-4-hydroxy-6,6-diphenyl-5,6-dihydro-2H-pyran-2-one]",6.92
14,"CCC(C)c1ccccc1SC1C(=O)CC(CCc2ccccc2)(c2ccccc2)OC1=O (configuration not stated) [3-{[2-(butan-2-yl)phenyl]sulfanyl}-4-hydroxy-6-phenyl-6-(2-phenylethyl)-5,6-dihydro-2H-pyran-2-one]",8.00
15,"Cc1ccc(C(C)(C)C)c(SC2C(=O)CC(CCc3ccccc3)(c3ccccc3)OC2=O)c1 (configuration not stated) [4-Hydroxy-5,6-dihydropyrone deriv. 49]",8.00
16,"Cc1ccccc1SC1C(=O)CC(c2ccccc2)(c2ccccc2)OC1=O (configuration not stated) [4-hydroxy-3-[(2-methylphenyl)sulfanyl]-6,6-diphenyl-5,6-dihydro-2H-pyran-2-one]",6.41
17,"Cc1ccccc1SC1C(=O)CC(CCc2ccccc2)(c2ccccc2)OC1=O (configuration not stated) [4-hydroxy-3-[(2-methylphenyl)sulfanyl]-6-phenyl-6-(2-phenylethyl)-5,6-dihydro-2H-pyran-2-one]",7.14
18,"Cc1ccc(C(C)C)c(SC2C(=O)CC(c3ccccc3)(c3ccccc3)OC2=O)c1 (configuration not stated) [4-hydroxy-3-{[5-methyl-2-(propan-2-yl)phenyl]sulfanyl}-6,6-diphenyl-5,6-dihydro-2H-pyran-2-one]",7.42
19,"Cc1ccc(C(C)C)c(SC2C(=O)CC(CCc3ccccc3)(c3ccccc3)OC2=O)c1 (configuration not stated) [4-hydroxy-3-{[5-methyl-2-(propan-2-yl)phenyl]sulfanyl}-6-phenyl-6-(2-phenylethyl)-5,6-dihydro-2H-pyran-2-one]",8.15
20,"CC(C)c1ccccc1SC1C(=O)CC(c2ccccc2)(c2ccccc2)OC1=O (configuration not stated) [4-hydroxy-6,6-diphenyl-3-{[2-(propan-2-yl)phenyl]sulfanyl}-5,6-dihydro-2H-pyran-2-one]",7.64

# Same assay, conditions: pH 4.7; 37 °C
row,Structure (SMILES),pIC50
1,"O=C(O)CCC1(c2ccccc2)CC(=O)C(SCCc2ccccc2)C(=O)O1 (configuration not stated) [3-(3,6-Dihydro-4-hydroxy-6-oxo-2-phenyl-5-[(2-phenylethyl)thio]-2H-pyran-2-yl)propanoic Acid]",5.92
2,"CC(C)CC1(c2ccccc2)CC(=O)C(SCc2ccccc2)C(=O)O1 (configuration not stated) [3-(benzylsulfanyl)-4-hydroxy-6-(2-methylpropyl)-6-phenyl-5,6-dihydro-2H-pyran-2-one]",6.36
3,"CC(C)CCC1(c2ccccc2)CC(=O)C(SCc2ccccc2)C(=O)O1 (configuration not stated) [3-(benzylsulfanyl)-4-hydroxy-6-(3-methylbutyl)-6-phenyl-5,6-dihydro-2H-pyran-2-one]",7.01
4,"CC(C)CCCC1(c2ccccc2)CC(=O)C(SCc2ccccc2)C(=O)O1 (configuration not stated) [3-(benzylsulfanyl)-4-hydroxy-6-(4-methylpentyl)-6-phenyl-5,6-dihydro-2H-pyran-2-one]",6.74
5,"CCCCCC1(c2ccccc2)CC(=O)C(SCc2ccccc2)C(=O)O1 (configuration not stated) [3-(benzylsulfanyl)-4-hydroxy-6-pentyl-6-phenyl-5,6-dihydro-2H-pyran-2-one]",6.91
6,"O=C1CC(CCc2ccccc2)(c2ccccc2)OC(=O)C1SCc1ccccc1 (configuration not stated) [3-(benzylsulfanyl)-4-hydroxy-6-phenyl-6-(2-phenylethyl)-5,6-dihydro-2H-pyran-2-one]",7.22
7,"CCCCC1(c2ccccc2)CC(=O)C(SCc2ccccc2)C(=O)O1 (configuration not stated) [3-(benzylsulfanyl)-6-butyl-4-hydroxy-6-phenyl-5,6-dihydro-2H-pyran-2-one]",6.57
8,"CCCCCCC1(c2ccccc2)CC(=O)C(SCc2ccccc2)C(=O)O1 (configuration not stated) [3-(benzylsulfanyl)-6-hexyl-4-hydroxy-6-phenyl-5,6-dihydro-2H-pyran-2-one]",6.74
9,"NC(=O)CCCC1(c2ccccc2)CC(=O)C(SCCc2ccccc2)C(=O)O1 (configuration not stated) [4-(3,6-Dihydro-4-hydroxy-6-oxo-2-phenyl-5-[(phenylethyl)thio]-2H-pyran-2-yl)butyramide]",5.89
10,"CC(C)CCC1(c2ccccc2)CC(=O)C(SCCc2ccccc2)C(=O)O1 (configuration not stated) [4-hydroxy-6-(3-methylbutyl)-6-phenyl-3-[(2-phenylethyl)sulfanyl]-5,6-dihydro-2H-pyran-2-one]",7.02
11,"CC(C)CCCC1(c2ccccc2)CC(=O)C(SCCc2ccccc2)C(=O)O1 (configuration not stated) [4-hydroxy-6-(4-methylpentyl)-6-phenyl-3-[(2-phenylethyl)sulfanyl]-5,6-dihydro-2H-pyran-2-one]",6.81
12,"CCCCCC1(c2ccccc2)CC(=O)C(SCCc2ccccc2)C(=O)O1 (configuration not stated) [4-hydroxy-6-pentyl-6-phenyl-3-[(2-phenylethyl)sulfanyl]-5,6-dihydro-2H-pyran-2-one]",7.08
